Experimental data reported in US12264134B2 (Merck Sharp & Dohme LLC, priority 2018, dated 2025).
Read-outs that look alike come from different tables or passages of the source.

Target: IDO1 (Homo sapiens, UniProt P14902)
Assay: IDO1 Cellular Assay in HeLa Cells Stimulated with IFNγ
Format: cell-based
[1] = read-out: HeLa Cell Potency, IC50

Chain of IDO1 (P14902 whole entry): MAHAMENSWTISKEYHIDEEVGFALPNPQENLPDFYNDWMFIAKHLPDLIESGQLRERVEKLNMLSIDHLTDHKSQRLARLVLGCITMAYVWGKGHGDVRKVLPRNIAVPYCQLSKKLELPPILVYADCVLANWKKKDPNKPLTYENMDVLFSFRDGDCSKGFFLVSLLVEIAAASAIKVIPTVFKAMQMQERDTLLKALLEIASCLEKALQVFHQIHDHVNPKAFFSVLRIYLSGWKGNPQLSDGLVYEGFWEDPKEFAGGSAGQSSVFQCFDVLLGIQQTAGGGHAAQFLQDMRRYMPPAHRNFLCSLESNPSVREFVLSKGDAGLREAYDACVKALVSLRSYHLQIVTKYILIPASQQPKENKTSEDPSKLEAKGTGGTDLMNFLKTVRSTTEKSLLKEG

Row | Structure (SMILES) | IC50 [1] [nM] | IC50 (HeLa Cell Potency, IC50 (nM)) [nM]
1 | Cc1cccc(N2CCN(C(=O)Cn3nc(C(=O)N4CCC(NC(N)=O)CC4)c4c3C[C@H]3C[C@@H]43)CC2)c1C [Example 255, N-{1-[(3bR,4aR)-1-{2-[4-(2,3-dimethylphenyl)piperazin-1-yl]-2-oxoethyl}-3b,4,4a,5-tetrahydro-1H-cyclopropa[3,4]cyclopenta[1,2-c]pyrazole-3-carbonyl]piperidin-4-yl}urea] | 13.1 | 
2 | CC(=O)N(C)C1CCN(C(=O)c2nn(CC(=O)N3CCN(c4cccc(C)c4C)CC3)c3c2[C@@H]2C[C@@H]2C3)CC1 [Example 256, N-{1-[(3bR,4aR)-1-{2-[4-(2,3-dimethylphenyl)piperazin-1-yl]-2-oxoethyl}-3b,4,4a,5-tetrahydro-1H-cyclopropa[3,4]cyclopenta[1,2-c]pyrazole-3-carbonyl]piperidin-4-yl}-N-methylacetamide] | 0.83 | 
3 | Cc1cccc(N2CCN(C(=O)Cn3nc(C(=O)N4CCC(NC(=O)C5CC5)CC4)c4c3C[C@H]3C[C@@H]43)CC2)c1C [Example 257, N-{1-[(3bR,4aR)-1-{2-[4-(2,3-dimethylphenyl)piperazin-1-yl]-2-oxoethyl}-3b,4,4a,5-tetrahydro-1H-cyclopropa[3,4]cyclopenta[1,2-c]pyrazole-3-carbonyl]piperidin-4-yl}cyclopropanecarboxamide] | 1.05 | 
4 | Cc1cccc(N2CCN(C(=O)Cn3nc(C(=O)N4CCC(N5CCC5)CC4)c4c3C[C@H]3C[C@@H]43)CC2)c1C [Example 258, 2-{(3bR,4aR)-3-[4-(azetidin-1-yl)piperidine-1-carbonyl]-3b,4,4a,5-tetrahydro-1H-cyclopropa[3,4]cyclopenta[1,2-c]pyrazol-1-yl}-1-[4-(2,3-dimethylphenyl)piperazin-1-yl]ethan-1-one] | 2.95 | 
5 | Cc1cccc(N2CCN(C(=O)Cn3nc(C(=O)N4CCC(O)(CN5CCCCC5)CC4)c4c3C[C@H]3C[C@@H]43)CC2)c1C [Example 259, 1-[4-(2,3-dimethylphenyl)piperazin-1-yl]-2-[(3bR,4aR)-3-{4-hydroxy-4-[(piperidin-1-yl)methyl]piperidine-1-carbonyl}-3b,4,4a,5-tetrahydro-1H-cyclopropa[3,4]cyclopenta[1,2-c]pyrazol-1-yl]ethan-1-one] | 9.62 | 
6 | Cc1cccc(N2CCN(C(=O)Cn3nc(C(=O)N4CCN(CC(F)F)CC4)c4c3C[C@H]3C[C@@H]43)CC2)c1C [Example 260, 2-{(3bR,4aR)-3-[4-(2,2-difluoroethyl)piperazine-1-carbonyl]-3b,4,4a,5-tetrahydro-1H-cyclopropa[3,4]cyclopenta[1,2-c]pyrazol-1-yl}-1-[4-(2,3-dimethyl-phenyl)piperazin-1-yl]ethan-1-one] | 0.84 | 
7 | Cc1cccc(N2CCN(C(=O)Cn3nc(C(=O)N4CC[C@@H](O)C[C@@H]4C)c4c3C[C@H]3C[C@@H]43)CC2)c1C [Example 261, 1-[4-(2,3-dimethylphenyl)piperazin-1-yl]-2-{(3bR,4aR)-3-[(2S,4R)-4-hydroxy-2-methylpiperidine-1-carbonyl]-3b,4,4a,5-tetrahydro-1H-cyclopropa[3,4]cyclopenta[1,2-c]pyrazol-1-yl}ethan-1-one] | 0.95 | 
8 | Cc1cccc(N2CCN(C(=O)Cn3nc(C(=O)N4CC[C@H](C(C)(C)O)C4)c4c3C[C@H]3C[C@@H]43)CC2)c1C [Example 262, 1-[4-(2,3-dimethylphenyl)piperazin-1-yl]-2-{(3bR,4aR)-3-[(3S)-3-(2-hydroxypropan-2-yl)pyrrolidine-1-carbonyl]-3b,4,4a,5-tetrahydro-1H-cyclopropa[3,4]cyclopenta[1,2-c]pyrazol-1-yl}ethan-1-one] | 0.82 | 
9 | Cc1cccc(N2CCN(C(=O)Cn3nc(C(=O)N4CCC(O)(CO)CC4)c4c3C[C@H]3C[C@@H]43)CC2)c1C [Example 263, 1-[4-(2,3-dimethylphenyl)piperazin-1-yl]-2-{(3bR,4aR)-3-[4-hydroxy-4-(hydroxymethyl)piperidine-1-carbonyl]-3b,4,4a,5-tetrahydro-1H-cyclopropa[3,4]cyclopenta[1,2-c]pyrazol-1-yl}ethan-1-one] | 0.75 | 
10 | Cc1cccc(N2CCN(C(=O)Cn3nc(C(=O)N4CCC(O)C(CO)C4)c4c3C[C@H]3C[C@@H]43)CC2)c1C (stereo partly drawn) [Example 264, 1-[4-(2,3-dimethylphenyl)piperazin-1-yl]-2-{(3bR,4aR)-3-[4-hydroxy-3-(hydroxymethyl)piperidine-1-carbonyl]-3b,4,4a,5-tetrahydro-1H-cyclopropa[3,4]cyclopenta[1,2-c]pyrazol-1-yl}ethan-1-one] | 1.28 | 
11 | Cc1cccc(N2CCN(C(=O)Cn3nc(C(=O)N4CCC(=O)CC4)c4c3C[C@H]3C[C@@H]43)CC2)c1C [Example 265, 1-[(3bR,4aR)-1-{2-[4-(2,3-dimethylphenyl)piperazin-1-yl]-2-oxoethyl}-3b,4,4a,5-tetrahydro-1H-cyclopropa[3,4]cyclopenta[1,2-c]pyrazole-3-carbonyl]piperidin-4-one] |  | < 0.51
12 | Cc1cccc(N2CCN(C(=O)Cn3nc(C(=O)N4CC[S+]([O-])CC4)c4c3C[C@H]3C[C@@H]43)CC2)c1C [Example 266, 4-[(3bR,4aR)-1-{2-[4-(2,3-dimethylphenyl)piperazin-1-yl]-2-oxoethyl}-3b,4,4a,5-tetrahydro-1H-cyclopropa[3,4]cyclopenta[1,2-c]pyrazole-3-carbonyl]-1lambda~4~,4-thiazinan-1-one] | 5.73 | 
13 | Cc1cccc(N2CCN(C(=O)Cn3nc(C(=O)N4CCOCC4CO)c4c3C[C@H]3C[C@@H]43)CC2)c1C (stereo partly drawn) [Example 267, 1-[4-(2,3-dimethylphenyl)piperazin-1-yl]-2-{(3bR,4aR)-3-[3-(hydroxymethyl)morpholine-4-carbonyl]-3b,4,4a,5-tetrahydro-1H-cyclopropa[3,4]cyclopenta[1,2-c]pyrazol-1-yl}ethan-1-one] | 7.91 | 
14 | Cc1cccc(N2CCN(C(=O)Cn3nc(C(=O)N4CCC5(CC4)COC(CO)C5)c4c3C[C@H]3C[C@@H]43)CC2)c1C (stereo partly drawn) [Example 268, 1-[4-(2,3-dimethylphenyl)piperazin-1-yl]-2-{(3bR,4aR)-3-[3-(hydroxymethyl)-2-oxa-8-azaspiro[4.5]decane-8-carbonyl]-3b,4,4a,5-tetrahydro-1H-cyclopropa[3,4]cyclopenta[1,2-c]pyrazol-1-yl}ethan-1-one] | 1.25 | 
15 | Cc1cccc(N2CCN(C(=O)Cn3nc(C(=O)N4CCS(=N)(=O)CC4)c4c3C[C@H]3C[C@@H]43)CC2)c1C [Example 269, 4-[(3bR,4aR)-1-{2-[4-(2,3-dimethylphenyl)piperazin-1-yl]-2-oxoethyl}-3b,4,4a,5-tetrahydro-1H-cyclopropa[3,4]cyclopenta[1,2-c]pyrazole-3-carbonyl]-1-imino-1lambda~6~,4-thiazinan-1-one] | 38.6 | 
16 | Cc1cccc(N2CCN(C(=O)Cn3nc(C(=O)N4CC5CCC(C4)N5C)c4c3C[C@H]3C[C@@H]43)CC2)c1C [Example 270, 1-[4-(2,3-dimethylphenyl)piperazin-1-yl]-2-[(3bR,4aR)-3-(8-methyl-3,8-diazabicyclo[3.2.1]octane-3-carbonyl)-3b,4,4a,5-tetrahydro-1H-cyclopropa[3,4]cyclopenta[1,2-c]pyrazol-1-yl]ethan-1-one] | 5.75 | 
17 | Cc1cccc(N2CCN(C(=O)Cn3nc(C(=O)N4CCCCC4C(C)(C)O)c4c3C[C@H]3C[C@@H]43)CC2)c1C (stereo partly drawn) [Example 271, 1-[4-(2,3-dimethylphenyl)piperazin-1-yl]-2-{(3bR,4aR)-3-[2-(2-hydroxypropan-2-yl)piperidine-1-carbonyl]-3b,4,4a,5-tetrahydro-1H-cyclopropa[3,4]cyclopenta[1,2-c]pyrazol-1-yl}ethan-1-one] | 3.66 | 
